Assay results published in US9144239B2, “Macrocyclic picolinamides as fungicides” (DOW AGROSCIENCES LLC, priority 2012, dated 2015).
Where two headings read alike, the source gives them in different places.

What was measured:
[1] = system: Puccinia triticina; synonym: Puccinia recondita f. sp. tritici; experiment: Fungicidal activity: wheat brown rust (PUCCRT), wheat seedlings; type: in vivo
Experimental: Technical grades of materials were dissolved in acetone, which were then mixed with nine volumes of water containing 110 ppm Triton X-100. The fungicide solutions were applied onto wheat seedlings using an automated booth sprayer to run-off. All sprayed plants were allowed to air dry prior to further handling. Wheat plants (variety Yuma) were grown from seed in a greenhouse in 50% mineral soil/50% soil-less Metro mix until the first leaf was fully emerged, with 7-10 seedlings per pot. These plants were inoculated with an aqueous spore suspension of Septoria tritici either prior to or after fungicide treatments. After inoculation the plants were kept in 100% relative humidity (one day in a dark dew chamber followed by two to three days in a lighted dew chamber at 20° C.) to permit spores to germinate and infect the leaf. The plants were then transferred to a greenhouse set at 20° C. for disease to develop. When disease symptoms were fully expressed on the 1st leaves of untreated plants, infection levels were assessed on a scale of 0 to 100 percent disease severity. Percent disease control was calculated using the ratio of disease severity on treated plants relative to untreated plants. Evaluation of Fungicidal Activity: Wheat Brown Rust (Puccinia […]; Synonym: Puccinia recondita f. Sp. Tritici; Bayer Code PUCCRT) Wheat plants (variety Yuma) were grown from seed in a greenhouse in 50% mineral soil/50% soil-less Metro mix until the first leaf was fully emerged, with 7-10 seedlings per pot. These plants were inoculated with an aqueous spore suspension of Puccinia triticina either prior to or after fungicide treatments. After inoculation the plants were kept in a dark dew room at 22° C. with 100% relative humidity overnight to permit spores to germinate and infect the leaf. The plants were then transferred to a greenhouse set at 24° C. for disease to develop. Fungicide formulation, application and disease assessment followed the procedures as described in the Example A.

[2] = system: Mycosphaerella graminicola; anamorph: Septoria tritici; experiment: Fungicidal activity: leaf blotch of wheat (SEPTTR), wheat seedlings; type: in vivo; conditions: Zymoseptoria tritici
Experimental: Evaluation of Fungicidal Activity: Leaf Blotch of Wheat (Mycosphaerella Graminicola; Anamorph: Septoria tritici; Bayer Code […]) Technical grades of materials were dissolved in acetone, which were then mixed with nine volumes of water containing 110 ppm Triton X-100. The fungicide solutions were applied onto wheat seedlings using an automated booth sprayer to run-off. All sprayed plants were allowed to air dry prior to further handling. Wheat plants (variety Yuma) were grown from seed in a greenhouse in 50% mineral soil/50% soil-less Metro mix until the first leaf was fully emerged, with 7-10 seedlings per pot. These plants were inoculated with an aqueous spore suspension of Septoria tritici either prior to or after fungicide treatments. After inoculation the plants were kept in 100% relative humidity (one day in a dark dew chamber followed by two to three days in a lighted dew chamber at 20° C.) to permit spores to germinate and infect the leaf. The plants were then transferred to a greenhouse set at 20° C. for disease to develop. When disease symptoms were fully expressed on the 1st leaves of untreated plants, infection levels were assessed on a scale of 0 to 100 percent disease severity. Percent disease control was calculated using the ratio of disease severity on treated plants relative to untreated plants.

[3] = 24 h, 100 ppm, 1 Day Protectant, wheat, read-out: Disease Control PUCCRT 1DP
[4] = 72 h, 100 ppm, 3 Day Curative, wheat, read-out: Disease Control PUCCRT 3DC
[5] = 24 h, 100 ppm, 1 Day Protectant, wheat, read-out: Disease Control SEPTTR 1DP
[6] = 72 h, 100 ppm, 3 Day Curative, wheat, read-out: Disease Control SEPTTR 3DC

Row | Compound | pest or weed control at 100 ppm ([1]; 24 h, read-out: Disease Control PUCCRT 1DP) [%] | pest or weed control at 100 ppm ([1]; 72 h, read-out: Disease Control PUCCRT 3DC) [%] | pest or weed control at 100 ppm ([2]; 24 h, read-out: Disease Control SEPTTR 1DP) [%] | pest or weed control at 100 ppm ([2]; 72 h, read-out: Disease Control SEPTTR 3DC) [%] | pest or weed control at 100 ppm [1, 3] [%] | pest or weed control at 100 ppm [1, 4] [%] | pest or weed control at 100 ppm [2, 5] [%] | pest or weed control at 100 ppm [2, 6] [%]
1 | COc1ccnc(C(=O)N[C@@H]2COC[C@H](OCc3ccccc3)[C@@H](OCc3ccccc3)[C@@H](C)OC2=O)c1O [Compound 30, N-((3R,7S,8S,9R)-7,8-bis(benzyloxy)-9-methyl-2-oxo-1,5-dioxonan-3-yl)-3-hydroxy-4-methoxypicolinamide] | 0 to 80 | 0 to 80 | 0 to 80 | 0 to 80 | – | – | – | –
2 | COc1ccnc(C(=O)N[C@@H]2COC[C@H](OCC(C)C)[C@@H](OCC(C)C)[C@@H](COCC(C)C)OC2=O)c1OCOC(C)=O [Compound 18] | – | – | – | – | 0 to 80 | 0 to 80 | 0 to 80 | –
3 | CCCCO[C@H]1COC[C@H](NC(=O)c2nccc(OC)c2OCOC(C)=O)C(=O)O[C@@H](C)[C@@H]1OC [Compound 37] | – | – | – | – | 80 to 100 | 80 to 100 | 0 to 80 | 0 to 80
4 | COc1ccnc(C(=O)N[C@H]2COC[C@@H](OCc3ccccc3)[C@H](OCc3ccccc3)[C@H](C)OC2=O)c1OCOC(C)=O [Compound 40] | – | – | – | – | 80 to 100 | 0 to 80 | 0 to 80 | 0 to 80
5 | COc1ccnc(C(=O)N[C@H]2COC[C@H](OCCCc3ccccc3)[C@@H](OCCCc3ccccc3)[C@H](C)OC2=O)c1O [Compound 59] | – | – | – | – | 80 to 100 | 80 to 100 | 80 to 100 | 0 to 80
6 | COc1ccnc(C(=O)N[C@H]2COC[C@H](Oc3ccc(C)cc3)[C@@H](Oc3ccc(C)cc3)[C@H](C)OC2=O)c1OCOC(C)=O [Compound 226] | – | – | – | – | 80 to 100 | 80 to 100 | 80 to 100 | 80 to 100
7 | COc1ccnc(C(=O)N[C@H]2COC[C@H](OCC(C)C)[C@@H](OCC(C)C)COC2=O)c1O [Compound 8] | – | – | – | – | 0 to 80 | 80 to 100 | 0 to 80 | 0 to 80
8 | COc1ccnc(C(=O)N[C@H]2COC[C@H](OCC(C)C)[C@@H](OCC(C)C)[C@@H](COCC(C)C)OC2=O)c1O [Compound 15, N-((3S,7S,8R,9R)-7,8-diisobutoxy-9-(isobutoxymethyl)-2-oxo-1,5-dioxonan-3-yl)-3-hydroxy-4-methoxypicolinamide] | – | – | – | – | – | 0 to 80 | 0 to 80 | –
9 | COc1ccnc(C(=O)N[C@H]2CO[C@@H](C)[C@H](OCc3ccccc3)[C@@H](OCc3ccccc3)[C@H](C)OC2=O)c1O [Compound 25] | – | – | – | – | 80 to 100 | 0 to 80 | 80 to 100 | 0 to 80
10 | CCCCO[C@H]1COC[C@H](NC(=O)c2nccc(OC)c2OCOC(C)=O)C(=O)O[C@@H](C)[C@@H]1OCC(C)C [Compound 50] | – | – | – | – | 80 to 100 | 80 to 100 | 80 to 100 | 80 to 100
11 | COc1ccnc(C(=O)N[C@H]2CO[C@H](C)[C@H]3OC(C)(C)O[C@@H]3[C@@H](C)OC2=O)c1OCOC(C)=O [Compound 29] | – | – | – | – | 0 to 80 | 0 to 80 | 0 to 80 | 0 to 80
12 | COc1ccnc(C(=O)N[C@H]2COC[C@H](Oc3ccccc3)[C@@H](OC3CCCC3)[C@H](C)OC2=O)c1O [Compound 205] | – | – | – | – | 80 to 100 | 80 to 100 | 80 to 100 | 80 to 100
13 | COc1ccnc(C(=O)N[C@H]2CO[C@@H](C)[C@H](OCC(C)C)[C@@H](OCC(C)C)COC2=O)c1OCOC(=O)C(C)C [Compound 7] | – | – | – | – | 80 to 100 | – | 80 to 100 | 80 to 100
